Source: patent US20230373972A1, “PIPERAZINE DERIVATIVE, PREPARATION METHOD THEREFOR AND USE THEREOF” (Zhejiang Hisun Pharmaceutical Co., Ltd., priority 2020, published 2023)

What was measured:
[1] = target: T1, Native human Factor XIa protease (Homo sapiens, UniProt P03951); test: Inhibition of activity of Factor XIa protease (chromogenic substrate S-2366); assay type: biochemical; settings: S-2366 1 mM, 37° C. 10 minutes, absorption at 405 nm
T1 construct: The Native human Factor XIa protease was purchased from Abcam; purchased Abcam ab62411
T1 sequence (P03951 388-625 limits assumed): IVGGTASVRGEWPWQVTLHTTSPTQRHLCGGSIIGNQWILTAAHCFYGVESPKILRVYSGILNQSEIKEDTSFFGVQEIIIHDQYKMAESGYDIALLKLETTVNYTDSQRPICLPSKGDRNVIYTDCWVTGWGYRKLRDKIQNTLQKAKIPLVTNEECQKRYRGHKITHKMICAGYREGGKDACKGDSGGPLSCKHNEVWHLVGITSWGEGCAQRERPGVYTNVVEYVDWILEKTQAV
T1 sequence (P03951 19-387 partner limits assumed): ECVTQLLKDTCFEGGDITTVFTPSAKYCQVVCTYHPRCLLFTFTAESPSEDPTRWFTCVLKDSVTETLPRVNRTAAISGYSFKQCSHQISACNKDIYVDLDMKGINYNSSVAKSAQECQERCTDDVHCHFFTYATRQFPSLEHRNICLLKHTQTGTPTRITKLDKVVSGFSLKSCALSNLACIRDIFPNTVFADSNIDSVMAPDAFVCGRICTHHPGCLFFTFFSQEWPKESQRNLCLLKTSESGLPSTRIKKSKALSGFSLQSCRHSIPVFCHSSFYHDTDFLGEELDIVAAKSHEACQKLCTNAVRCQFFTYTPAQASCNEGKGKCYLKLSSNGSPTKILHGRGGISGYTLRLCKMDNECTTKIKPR
From the text: The following method was used to determine an inhibition degree of the compound of the present invention on an activity of Native human Factor XIa protease in vitro. In the method, a Factor XIa chromogenic substrate was used to test the inhibition degree on the activity of the Factor XIa protease. The Native human Factor XIa protease was purchased from Abcam (article number ab62411), and S-2366 was purchased from Chromogenix (article number 82109039). An experimental process was briefly described as follows: a test compound was dissolved in DMSO to prepare a 10 mM storage solution first, then the compound was diluted with a Factor XIa reaction buffer (100 mM Tris-HCl, 200 mM NaCl, 0.02% Tween 20, pH 7.4) by a quadruple gradient, and a final concentration of the test compound in a reaction system ranged from 10,000 nM to […]. The reaction was carried out in a 384-well microplate. 2 μL of the test compounds at different concentrations diluted with the reaction buffer were added to wells first, and 2 μL of 1% DMSO (a final concentration of DMSO in the reaction system was 0.1%) was used to replace blank and control wells. Subsequently, 8 μL of enzyme working solution (a final concentration of Factor XIa was […]) was added to each well, and 8 μL of Factor XIa reaction buffer was used to replace the blank well, centrifuged for 30 seconds, and incubated on ice for 5 minutes. Finally, 10 μL of substrate working solution (a final concentration of S-2366 was 1 mM) was added to each well, and centrifuged for 30 seconds, and the reaction was started. The solution was incubated at 37° C. for 10 minutes to determine a light absorption value at 405 nm. By comparing with a light absorption value of the control group (0.1% DMSO), a percentage inhibition rate of the compound at each concentration was calculated, and nonlinear regression analysis was carried out on value-inhibition rate with the concentration of the compound by GraphPad Prism 5 software, so as to obtain an IC50 value of the compound, as shown in Table 1.

human plasma = test: In-vitro anticoagulation on human plasma (APTT kit, coagulation time); settings: concentration of the compound when the coagulation time (APTT) was prolonged twice
Description: The following method was used to determine the in-vitro anticoagulation of the compound of the present invention in the human plasma. In the method, an APTT kit of the MediRox company was used to test. The APTT kit was purchased from MediRox (article number MRX930), and the human plasma was prepared internally.
The preparation of the human plasma was briefly described as follows: human plasma was collected in a blood collection tube containing sodium citrate, and centrifuged at 3,000 rpm for 10 minutes at room temperature, and plasma was collected, and packaged separately and stored at −80° C.
An APTT test process was briefly described as follows: a test compound was dissolved in DMSO to prepare a 10 mM storage solution first, then the test compound was diluted with DMSO by a triple gradient, and a final concentration of the test compound in a reaction system ranged from 217 μM to 0.03 μM. 4 μL, of test compounds at different concentrations diluted with DMSO were added to a centrifuge tube containing 180 μL of plasma, and 4 μL of DMSO was added to a blank group, shaken and mixed evenly, and incubated at 37° C. for 5 minutes. Subsequently, an APTT reagent was placed in a reagent holder according to instrument requirements, the incubated plasma sample was placed in a detection position of a coagulation analyzer, and a coagulation time was determined and recorded (s). With a final concentration of the compound as an abscissa and Ratio (Ratio=TiT0, wherein T0 was a coagulation time of a blank control, and Ti was a coagulation time of a compound to be tested) as an ordinate, a coagulation dose-effect curve was drawn by Graph Pad Prisms, and a concentration of the compound when the coagulation time was prolonged twice was calculated, which was namely a CT2 value, as shown in Table 2.

IC50 [1] | Structure (SMILES) | CT2 (human plasma)
35.8 nM | COc1ccc(CC(C(=O)Nc2ccc3nn(C)cc3c2)N2CC(=O)N(c3cc(Cl)ccc3-n3cc(Cl)nn3)CC2=O)cc1 (centres unmarked) [Example 108, 2-(4-(5-chloro-2-(4-chloro-1H-1,2,3-triazol-1-yl)phenyl)-2,5-dioxopiperazin-1-yl)-3-(4-methoxyphenyl)-N-(2-methyl-2H-indazol-5-yl)propanamide] | 10.6 µM
38.5 nM | Cn1cc2cc(NC(=O)C(Cc3ccc(F)cc3)N3CC(=O)N(c4cc(Cl)ccc4-n4cnnn4)CC3=O)ccc2n1 (centres unmarked) [Example 41, 2-(4-(5-Chloro-2-(1H-tetrazol-1-yl)phenyl)-2,5-dioxopiperazin-1-yl)-3-(4-fluorophenyl)-N-(2-methyl-2H-indazol-5-yl)propanamide] | 8.5 µM
12.7 nM | [2H]C([2H])([2H])n1cc2cc(NC(=O)C(Cc3ccccc3)N3CC(=O)N(c4cc(Cl)ccc4-n4cc(Cl)nn4)CC3=O)ccc2n1 (centres unmarked) [Example 109, 2-(4-(5-Chloro-2-(4-chloro-1H-1,2,3-triazol-1-yl)phenyl)-2,5-dioxopiperazin-1-yl)-N-(2-(methyl-d3)-2H-indazol-5-yl)-3-phenylpropanamide] | 12.6 µM
44.7 nM | O=C(Nc1ccn2nccc2c1)C(Cc1ccccc1)N1CC(=O)N(c2cc(Cl)ccc2-n2cc(Cl)nn2)CC1=O (centres unmarked) [Example 40, 2-(4-(5-chloro-2-(4-chloro-1H-1,2,3-triazol-1-yl)phenyl)-2,5-dioxopiperazin-1-yl)-3-phenyl-N-(pyrazolo[1.5-a]pyridin-5-yl)propanamide] | –
17.6 nM | O=C(Nc1ccn2nccc2c1)C(Cc1ccccc1)N1CC(=O)N(c2cc(Cl)ccc2-n2cnnn2)CC1=O (centres unmarked) [Example 37, 2-(4-(5-chloro-2-(1H-tetrazol-1-yl)phenyl)-2,5-dioxopiperazin-1-yl)-3-phenyl-N-(pyrazolo[1.5-a]pyridin-5-yl)propanamide] | 7.5 µM
22.8 nM | CN1Cc2cc(NC(=O)C(Cc3ccccc3)N3CC(=O)N(c4cc(Cl)ccc4-n4cnnn4)CC3=O)ccc2C1=O (centres unmarked) [Example 12, 2-(4-(5-Chloro-2-(1H-tetrazol-1-yl)phenyl)-2,5-dioxopiperazin-1-yl)-N-(2-methyl-1-oxoisoindolin-5-yl)-3-phenylpropanamide] | 4.4 µM
32.7 nM | Cn1cc2cc(NC(=O)C(Cc3ccccc3)N3CC(=O)N(c4cc(Cl)ccc4-n4cc(C(F)(F)F)nn4)CC3=O)ccc2n1 (centres unmarked) [Example 121, 2-(4-(5-Chloro-2-(4-(trifluoromethyl)-1H-1,2,3-triazol-1-yl)phenyl)-2,5-dioxopiperazin-1-yl)-N-(2-methyl-2H-indazol-5-yl)-3-phenylpropanamide] | 16.1 µM
29.9 nM | COC(=O)c1ccc(NC(=O)C(Cc2ccccc2)N2CC(=O)N(c3cc(Cl)ccc3-n3cnnn3)CC2=O)cc1 (centres unmarked) [Example 5, Methyl 4-(2-(4-(5-Chloro-2-(1H-tetrazol-1-yl)phenyl)-2,5-dioxopiperazin-1-yl)-3-phenylpropanamido)benzoate] | 17.8 µM
30.5 nM | CNC(=O)c1ccc(NC(=O)C(Cc2ccccc2)N2CC(=O)N(c3cc(Cl)ccc3-n3cnnn3)CC2=O)cc1F (centres unmarked) [Example 20, 4-(2-(4-(5-Chloro-2-(1H-tetrazol-1-yl)phenyl)-2,5-dioxopiperazin-1-yl)-3-phenylpropanamido)-2-fluoro-N-methylbenzamide] | 8.6 µM
36.7 nM | NC(=O)c1ccc(NC(=O)C(Cc2ccccc2)N2CC(=O)N(c3cc(Cl)ccc3-n3cnnn3)CC2=O)cc1 (centres unmarked) [Example 3, 4-(2-(4-(5-Chloro-2-(1H-tetrazol-1-yl)phenyl)-2,5-dioxopiperazin-1-yl)-3-phenylpropanamido)benzamide] | 6.6 µM
16.9 nM | O=C(O)c1ccc(NC(=O)C(Cc2ccccc2)N2CC(=O)N(c3cc(Cl)ccc3-n3cc(Cl)nn3)CC2=O)cc1 (centres unmarked) [Example 26, 4-(2-(4-(5-Chloro-2-(4-chloro-1H-1,2,3-triazol-1-yl)phenyl)-2,5-dioxopiperazin-1-yl)-3-phenylpropanamido)benzoic Acid] | 7.0 µM
17.7 nM | COC(=O)N1CCc2cc(NC(=O)C(Cc3ccccc3)N3CC(=O)N(c4cc(Cl)ccc4-n4cnnn4)CC3=O)ccc21 (centres unmarked) [Example 8, Methyl 5-(2-(4-(5-chloro-2-(1H-tetrazol-1-yl)phenyl)-2,5-dioxopiperazin-1-yl)-3-phenylpropanamido)indoline-1-carboxylate] | –
34.6 nM | CNC(=O)c1ccc(NC(=O)C(Cc2ccccc2)N2CC(=O)N(c3cc(Cl)ccc3-n3cnnn3)CC2=O)cc1 (centres unmarked) [Example 6, 4-(2-(4-(5-Chloro-2-(1H-tetrazol-1-yl)phenyl)-2,5-dioxopiperazin-1-yl)-3-phenylpropanamido)-N-methylbenzamide] | 4.9 µM
17.6 nM | O=C(O)c1ccc(NC(=O)C(Cc2ccccc2)N2CC(=O)N(c3cc(Cl)ccc3-n3cnnn3)CC2=O)cc1 (centres unmarked) [Example 52, 4-(2-(4-(5-chloro-2-(1H-tetrazol-1-yl)phenyl)-2,5-dioxopiperazin-1-yl)-3-phenylpropanamido)benzoic Acid] | 2.0 µM
14.9 nM | O=C1Cc2cc(NC(=O)C(Cc3ccccc3)N3CC(=O)N(c4cc(Cl)ccc4-n4cnnn4)CC3=O)ccc2N1 (centres unmarked) [Example 13, 2-(4-(5-Chloro-2-(1H-tetrazol-1-yl)phenyl)-2,5-dioxopiperazin-1-yl)-N-(2-oxoindolin-5-yl)-3-phenylpropanamide] | 4.0 µM
49.8 nM | CCOC(=O)c1ccc(NC(=O)C(Cc2ccccc2)N2CC(=O)N(c3cc(Cl)ccc3-n3cnnn3)CC2=O)cc1 (centres unmarked) [Example 4, Ethyl 4-(2-(4-(5-chloro-2-(1H-tetrazol-1-yl)phenyl)-2,5-dioxopiperazin-1-yl)-3-phenylpropanamido) benzoate] | –
43.9 nM | O=C(Nc1ccc(N2CCCC2=O)cc1)C(Cc1ccccc1)N1CC(=O)N(c2cc(Cl)ccc2-n2cnnn2)CC1=O (centres unmarked) [Example 10, 2-(4-(5-Chloro-2-(1H-tetrazol-1-yl)phenyl)-2,5-dioxopiperazin-1-yl)-N-(4-(2-oxopyrrolidin-1-yl)phenyl)-3-phenylpropanamide] | –
23.2 nM | O=C(Nc1ccc2nccnc2c1)C(Cc1ccccc1)N1CC(=O)N(c2cc(Cl)ccc2-n2cc(Cl)nn2)CC1=O (centres unmarked) [Example 24, 2-(4-(5-Chloro-2-(4-chloro-1H-1,2,3-triazol-1-yl)phenyl)-2,5-dioxopiperazin-1-yl)-3-phenyl-N-(quinoxalin-6-yl)propanamide] | –
43.2 nM | COc1nccc2cc(NC(=O)C(Cc3ccccc3)N3CC(=O)N(c4cc(Cl)ccc4-n4cnnn4)CC3=O)ccc12 (centres unmarked) [Example 23, 2-(4-(5-Chloro-2-(1H-tetrazol-1-yl)phenyl)-2,5-dioxopiperazin-1-yl)-N-(1-methoxyisoquinolin-6-yl)-3-phenylpropanamide] | –
27.3 nM | NC(=O)c1ccc(NC(=O)[C@H](Cc2ccccc2)N2CC(=O)N(c3cc(Cl)ccc3-n3cc(Cl)nn3)CC2=O)cc1F [Example 137, (S)-4-(2-(4-(5-chloro-2-(4-chloro-1H-1,2,3-triazol-1-yl)phenyl)-2,5-dioxopiperazin-1-yl)-3-phenylpropanamido)-2-fluorobenzamide] | –

Structure (SMILES) | IC50 [1] | CT2 (human plasma)
Cn1cc2cc(NC(=O)C(Cc3ccc(C#N)cc3)N3CC(=O)N(c4cc(Cl)ccc4-n4cc(Cl)nn4)CC3=O)ccc2n1 (centres unmarked) [Example 115, 2-(4-(5-chloro-2-(4-chloro-1H-1,2,3-triazol-1-yl)phenyl)-2,5-dioxopiperazin-1-yl)-3-(4-cyanophenyl)-N-(2-methyl-2H-indazol-5-yl)propanamide] | 46.7 nM | 11.7 µM
